Measurements from doi:10.1101/2023.02.27.530254, “Large library docking for cannabinoid-1 receptor agonists with reduced side effects” (bioRxiv, 2024).
Several values for one entry are separate records, joined by “and”; a condition that tells them apart may be missing. Equal values may be shown once.

Columns and labels:
C56BL/6 mice = assay: Conditioned place preference; conditions: mouse, in vivo
Method: To determine if ‘4042 was inherently rewarding or aversive we used the conditioned place paradigm as described. Briefly, mice were first habituated to the test apparatus, twice, and their preference for each chamber recorded for 30 minutes (Pretest). Two conditioning days followed in which mice received the vehicle control or the compound, and 30 minutes later restricted for 30 minutes in the preferred or non-preferred chamber, respectively. On day 5 (Test day), mice were allowed to roam freely between the 3 chambers of the apparatus and their preference for each chamber recorded for 30 minutes. To calculate the CPP score, we subtracted the time spent in each chamber of the box on the Pretest day from that of the Test day (CPP score = Test - Pretest).

hCB1 [1] = biological target: T1, hCB1 (Homo sapiens, UniProt P21554); assay: Lance Ultra cAMP accumulation assay (inhibition of forskolin-stimulated cAMP), CHO cells; type: cell-based; design: expressed in transfected cells
Method: The inhibition of forskolin-stimulated cAMP accumulation assays was carried out using PerkinElmer’s Lance Ultra cAMP kit following the manufacturer’s protocol. In brief, CHO cells stably expressing human CB1R were harvested by incubation with Versene (ThermoFisher Scientific, Waltham, MA) for 10 min, washed once with Hank’s Balanced Salt Solution, and resuspended in stimulation buffer at ~200 cells/μL density. The ligands at eight different concentrations (0.001–10,000 nM) in stimulation buffer (5 μL) containing forskolin (2 μM final concentration) were added to a 384-well plate followed by the cell suspension (5 μL; ~1000 cells/well). The plate was incubated for 30 min at room temperature. Eu-cAMP tracer (5 μL) and Ulight-anti-cAMP (5 μL) working solutions were then added to each well, and the plate was incubated at room temperature for an additional 60 min. Results were measured on a Perkin-Elmer EnVision plate reader. The EC50 values were determined by nonlinear regression analysis using Prism software (GraphPad Software, Inc., San Diego, CA) and are expressed as the mean of three experiments, each performed in triplicate.

CB1 = biological target: T2, CB1 (Rattus norvegicus, UniProt P20272); assay: Radioligand competition binding with [3H]-CP-55,940, rat brain membranes; conditions: for Ki: [3H]-CP-55,940 competition, rat brain membranes
T2 construct: membrane preparations from rat brain (source of CB1); tissue Bioivt RAT00BRAINMZN; host or cells: rat brain
Method: The results were analyzed using nonlinear regression to determine the IC50 and Ki values for each ligand (Prism by GraphPad Software, Inc., San Diego, CA). The Ki values are expressed as the mean of two to three experiments each performed in triplicate.

hCB1 [2] = biological target: T1, hCB1; assay: bioSens-All ebBRET effector biosensor signaling profiling, HEK293; type: cell-based; design: host or cells: HEK293 (HEK293SL clone), transient
Method: ebBRET-based effector membrane translocation biosensor assays were conducted at Domain Therapeutics NA Inc. (Montreal, QC, Canada) as previously described. […] HEK293 cells were maintained in Dulbecco’s Modified Eagle Medium (DMEM) (Wisent) supplemented with 1% penicillin- streptomycin (Wisent) and 10% (or 2 % for transfection) fetal bovine serum (Wisent) at 37°C with 5% CO2. All biosensor-coding plasmids and related information are the property of Domain Therapeutics NA Inc. The total amount of transfected DNA was adjusted and kept constant at 1 μg per mL of cell culture to be transfected using salmon sperm DNA (Invitrogen) as ‘carrier’ DNA, PEI (polyethylenimine 25 kDa linear, PolyScience) and DNA (3:1 ml PEI:mg DNA ratio) were first diluted separately in 150 mM NaCl then mixed and incubated for at least 20 minutes at room temperature to allow for the formation of DNA/PEI complexes. During the incubation, HEK293 cells were detached, counted, and re-suspended in maintenance medium to a 350,000 cells per mL density. At the end of the incubation period, the DNA/PEI mixture was added to the cells. Cells were finally distributed in 96-well plates (White Opaque 96-well /Microplates, Greiner) at a density of 35,000 cells per well. Forty-eight hours post-transfection, medium was aspirated and replaced with 100 μl of Hank’s Balanced Salt Solution buffer (HBSS) (Wisent) per well using 450-Select TS Biotek plate washer. After 60 min incubation in this medium, 10 μL of 10 μM e-Coelenterazine Prolume Purple (Methoxy e-CTZ) (Nanolight) was added to each well for a final concentration of 1 μM immediately followed by addition of increasing concentrations of the test compounds to each well using the HP D300 digital dispenser (Tecan). All compounds were assayed at 22 concentrations with each biosensor after a 10-minute room temperature incubation period. […] All BRET ratios were standardized using the universal BRET (uBRET) equation: uBRET=BRETratio-A/B-A×10,000 where A is the BRET ratio obtained from transfection of negative control and B is the BRET ratio obtained from transfection of positive control. […] The data were analyzed using the four-parameter logistic non-linear regression model in GraphPad Prism 9.1 and data were presented as means ± CIs of 1–4 independent experiments.
The SEM was calculated for the logEmax/EC50 ratios using the following equation: SEM=σ/n where σ is the standard deviation, and n is the number of experiments.

CB1R = biological target: T3, CB1R (Homo sapiens, UniProt P21554, C107A/C139A/C149A/C238A/C355A/C382A/C386A/C415A/C431A/C449A/C98A/R336C); assay: Bimane fluorescence of TM6-labeled minimal cysteine CB1R; type: biochemical; conditions: 10 μM ligand; apo 459 nm
T3 construct: N-terminal FLAG tag and C-terminal histidine tag was added to human full-length CB1; FLAG (N); histidine tag (C); made in house; host or cells: Spodoptera frugiperda Sf9 (baculovirus)
Method: A minimal cysteine version of CB1R was generated[73] where all the cysteine residues (except C256 and C264) were mutated to alanine. […] Excess label was removed using size exclusion chromatography on a Superdex 200 10/300 Increase column in 20 mM HEPES pH 7.5, 100 mM NaCl and 0.01% MNG/0.001% CHS. Bimane-labeled CB1R at […] was incubated with ligands (10 μM) for one hour at room temperature. Fluorescence data was collected at room temperature in a 150 μL cuvette with a FluorEssence v3.8 software on a Fluorolog instrument (Horiba) in photon-counting mode. Bimane fluorescence was measured by excitation at 370 nm with excitation and emission bandwidth passes of 4 nm. The emission spectra were recorded from 410 to 510 nm with 1 nm increment and 0.1 s integration time.

T1 sequence (P21554 whole entry): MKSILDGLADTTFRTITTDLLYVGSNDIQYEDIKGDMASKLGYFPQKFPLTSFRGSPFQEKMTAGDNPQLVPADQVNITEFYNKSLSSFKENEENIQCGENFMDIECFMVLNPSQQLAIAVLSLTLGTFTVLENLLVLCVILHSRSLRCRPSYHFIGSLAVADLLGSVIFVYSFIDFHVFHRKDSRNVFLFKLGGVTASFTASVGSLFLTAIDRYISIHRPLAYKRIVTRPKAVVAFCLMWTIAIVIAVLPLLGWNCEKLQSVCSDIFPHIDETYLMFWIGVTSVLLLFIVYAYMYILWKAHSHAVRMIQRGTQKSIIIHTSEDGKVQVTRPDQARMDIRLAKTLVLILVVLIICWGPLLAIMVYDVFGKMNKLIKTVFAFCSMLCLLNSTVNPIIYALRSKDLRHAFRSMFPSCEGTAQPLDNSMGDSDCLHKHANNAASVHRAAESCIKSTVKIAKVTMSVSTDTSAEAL
T2 sequence (P20272 whole entry): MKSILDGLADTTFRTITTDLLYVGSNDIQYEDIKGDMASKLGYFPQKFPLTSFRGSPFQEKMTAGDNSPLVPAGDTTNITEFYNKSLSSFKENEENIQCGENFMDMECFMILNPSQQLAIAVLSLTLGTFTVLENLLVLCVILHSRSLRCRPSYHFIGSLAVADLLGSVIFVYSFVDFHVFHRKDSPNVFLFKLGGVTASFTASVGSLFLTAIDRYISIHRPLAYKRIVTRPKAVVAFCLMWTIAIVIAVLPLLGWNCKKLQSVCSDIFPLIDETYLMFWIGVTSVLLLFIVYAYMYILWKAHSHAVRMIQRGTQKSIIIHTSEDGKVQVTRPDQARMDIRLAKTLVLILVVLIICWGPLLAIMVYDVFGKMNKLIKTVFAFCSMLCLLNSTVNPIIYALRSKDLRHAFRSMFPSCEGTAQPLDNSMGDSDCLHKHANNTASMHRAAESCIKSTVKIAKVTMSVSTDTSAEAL
T3 sequence (P21554 whole entry C98A/C107A/C139A/C149A/C238A/R336C/C355A/C382A/C386A/C415A/C431A/C449A): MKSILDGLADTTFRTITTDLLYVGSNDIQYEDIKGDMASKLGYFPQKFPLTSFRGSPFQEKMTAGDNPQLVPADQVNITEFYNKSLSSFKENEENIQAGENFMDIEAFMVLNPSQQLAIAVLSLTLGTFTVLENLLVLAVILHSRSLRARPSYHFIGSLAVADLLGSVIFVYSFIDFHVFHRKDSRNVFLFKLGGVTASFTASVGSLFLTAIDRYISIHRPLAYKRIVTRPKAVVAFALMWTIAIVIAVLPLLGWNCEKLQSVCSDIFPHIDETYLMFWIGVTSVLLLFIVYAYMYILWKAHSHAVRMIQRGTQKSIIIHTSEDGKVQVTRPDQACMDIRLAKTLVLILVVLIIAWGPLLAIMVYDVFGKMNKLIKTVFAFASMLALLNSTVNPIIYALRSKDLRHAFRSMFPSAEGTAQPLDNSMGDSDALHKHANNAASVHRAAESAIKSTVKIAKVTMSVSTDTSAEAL

Row | Structure (SMILES) | conditioned place preference (C56BL/6 mice) | EC50 (hCB1 [1]) | Emax (hCB1 [1]; CHO, read-out: hCB1 Lance Ultra cAMP Emax [95% CI]) | Emax (CB1; maximal radioligand displacement, read-out: rCB1 binding Emax [SEM]) | Ki (CB1; rCB1 binding Ki [95% CI]) | Ki (CB1; rCB1 binding pKi [95% CI]) | Emax (hCB1 [2]; HEK293, read-out: hCB1 Gi1 Emax [95% CI]) | Emax (hCB1 [2]; HEK293, read-out: hCB1 GoB Emax [95% CI]) | Emax (hCB1 [2]; HEK293, read-out: hCB1 Gz Emax [95% CI]) | EC50 (hCB1 [2]; hCB1 Gi1 EC50 [95% CI], Gi1 sensor) | EC50 (hCB1 [2]; hCB1 GoB EC50 [95% CI], GoB sensor) | EC50 (hCB1 [2]; hCB1 GoB pEC50 [95% CI], GoB sensor) | EC50 (hCB1 [2]; hCB1 Gz EC50 [95% CI], Gz sensor) | bimane spectrum λmax (CB1R)
1 | CN1CC[C@]23c4c5ccc(O)c4O[C@H]2[C@@H](O)C=C[C@H]3[C@H]1C5 [morphine, reference compound] | significantly increased their preference |  |  |  |  |  |  |  |  |  |  |  |  | 
2 | COC(=O)[C@](C)(NC(=O)c1cc(C)n(-c2cccc(C(F)(F)F)c2)n1)c1cccs1 [‘8690] |  | 0.473 µM | 53% | 100% | 0.09 µM and 0.0902 µM | 0.0794 µM | 82% | 83% | 98% | 0.0191 µM | 0.018 µM | 0.0158 µM | 0.033 µM | 459 nm
